Assay results reported in patent US20250041302A1, “PROLYL HYDROXYLASE DOMAIN INHIBITOR FOR TREATING HEMORRHAGIC OR BURN SHOCK” (THE GOVERNMENT OF THE UNITED STATES, AS REPRESENTED BY THE …, priority 2022, published 2025).
Entries after “also recorded” stand apart in the source; their conditions may differ.

Test system: swine model of 40% total burned surface area burn
Test: Porcine burn shock pilot study, 40% total burned surface area contact burn
Format: in vivo, Juvenile female Yorkshire swine
Conditions: for BE / HCO3 / Lactate / TCO2 / arterial blood gas pH / pCO2 / pO2 / sO2: 4 Hours after Burn; for Alanine Aminotransferase / Albumin / Alkaline Phosphatase / Amylase / Aspartate Aminotransferase / BUN / Basophils / Bicarbonate / Calculated Osmolality / Cellular Hemoglobin (Optical) / Cellular Hemoglobin Concentration Mean (Optical) / Chloride / Eosinophils / Glucose / Hematocrit / Hemoglobin / Hemoglobin Distribution Width / Large Unstained Cells / Lipase / Lymphocytes / Mean Corpuscular Hemoglobin / Mean Corpuscular Hemoglobin Concentration / Mean Corpuscular Volume / Mean Platelet Volume / Monocytes / Myoglobin / Neutrophils / Platelets / Potassium / Red Blood Cells / Red Cell Distribution Width / Sodium / Total Protein / White Blood Cells / Creatinine: 24 Hours after Burn; for mortalities: n=4, over 48 hours
Description: Using n=12 animals, we performed a pilot study of the effects of HIF-1α pathway activation with MK-8617 on survival time and volume of resuscitation fluid required to maintain urine output over 48 hours in a swine model of 40% total burned surface area mixed deep and partial thickness contact burn. Animals were block randomized into three groups, including control (vehicle only; n=4), low-dose (15 mg; n=4) and high-dose (50 mg; n=4). MK-8617 for injection was dissolved in a 45:5:50 mixture of polyethylene glycol (molecular weight: 400 daltons): dimethylsulfoxide: saline with pH adjusted to 8.4. Juvenile female Yorkshire swine weighing between 35-50 kg underwent open surgical splenectomy, then were allowed to recover for a minimum of two weeks before instrumentation with central venous and arterial lines and experimental burn. Animals received an injection of MK-8617 or vehicle at 30 minutes after burn followed by a standard-of-care crystalloid resuscitation with lactated Ringer's solution starting at 60 minutes after burn-we used a custom-built, fully closed-loop, automated resuscitation system based on the Burn Navigator to deliver goal-directed resuscitation with a target urine output of 30-50 ml/hr. Time to mortality, total fluid volumes infused, urine output generated, and serological measures of organ function were measured. Investigators remained blinded to treatment allocations until after data analysis was complete. Survival was analyzed using a log-rank test followed by a Tukey's studentized range multiple comparisons adjustment. Serological measures were analyzed using a linear model with baseline correction followed by a Tukey-Kramer multiple comparisons adjustment.

[1] = low and high dose versus control

Work on `COc1ccc(C(NC(=O)c2cnc(-c3cccnn3)nc2O)c2ccc(OC)cc2)cc1` [MK-8617, N-[Bis(4-methoxyphenyl)methyl]-4-hydroxy-2-(pyridazin-3-yl)pyrimidine-5-carboxamide] yielded a BE (High Dose (50 mg)) of 3.75 ± 2.99 mmol/L, an HCO3 (High Dose (50 mg)) of 28.18 ± 2.44 mmol/L and a Lactate (High Dose (50 mg)) of 6.98 ± 3.09 mmol/L. The TCO2 (High Dose (50 mg)) was 29.50 ± 2.52 mmol/L, the “arterial blood gas pH” value (High Dose (50 mg)) was 7.43±0.05 and the pCO2 (High Dose (50 mg)) was 42.25 ± 4.07 mmHg. For the same compound, the pO2 (High Dose (50 mg)) was 209.00 ± 2.45 mmHg, the sO2 (High Dose (50 mg)) was 100 ± 0% and the “Alanine Aminotransferase” value (High Dose (50 mg)) was 50.00 ± 10.23 U/L. For the same compound, the Albumin (High Dose (50 mg)) was 0.55 ± 0.19 g/dL, the “Alkaline Phosphatase” value (High Dose (50 mg)) was 159.75 ± 39.11 U/L and the Amylase (High Dose (50 mg)) was 58577 ± 41616 U/L. The “Aspartate Aminotransferase” value (High Dose (50 mg)) was 98.75 ± 37.56 U/L, the BUN (High Dose (50 mg)) was 18.75 ± 1.65 mg/dL and the Basophils (High Dose (50 mg)) was 0.13 ± 0.05%. For the same compound, the Bicarbonate (High Dose (50 mg)) was 26.90 ± 1.65 mmol/L, the “Calculated Osmolality” value (High Dose (50 mg)) was 290.00 ± 9.49 and the Cellular Hemoglobin (Optical) (High Dose (50 mg)) was 16.3 ± 0.66 pg. The “Cellular Hemoglobin Concentration Mean (Optical)” value (High Dose (50 mg)) was 31.30 ± 0.86 g/dL, the Chloride (High Dose (50 mg)) was 108.25 ± 4.99 mmol/L and the Eosinophils (High Dose (50 mg)) was 0.18 ± 0.05%. For the same compound, the Glucose (High Dose (50 mg)) was 69.50 ± 3.70 mg/dL, the Hematocrit (High Dose (50 mg)) was 29.93 ± 2.01% and the Hemoglobin (High Dose (50 mg)) was 9.60 ± 0.51 g/dL. For the same compound, the “Hemoglobin Distribution Width” value (High Dose (50 mg)) was 1.78 ± 0.15 g/dL, the “Large Unstained Cells” value (High Dose (50 mg)) was 0.88 ± 0.17% and the Lipase (High Dose (50 mg)) was 155.67 ± 71.84 U/L. The Lymphocytes (High Dose (50 mg)) was 38.78 ± 9.52%, the “Mean Corpuscular Hemoglobin” value (High Dose (50 mg)) was 16.75 ± 0.60 pg and the “Mean Corpuscular Hemoglobin Concentration” value (High Dose (50 mg)) was 32.18 ± 0.59 g/dL. The “Mean Corpuscular Volume” value (High Dose (50 mg)) was 52.05 ± 0.97 fL, the “Mean Platelet Volume” value (High Dose (50 mg)) was 11.53 ± 1.06 fL and the Monocytes (High Dose (50 mg)) was 1.98 ± 0.71%. For the same compound, the Myoglobin (High Dose (50 mg)) was 502.50 ± 148.23 ng/mL, the Neutrophils (High Dose (50 mg)) was 58.05 ± 9.81% and the Platelets (High Dose (50 mg)) was 363 ± 32 10³ cells/µL. For the same compound, the Potassium (High Dose (50 mg)) was 4.58 ± 0.85 mmol/L, the “Red Blood Cells” value (High Dose (50 mg)) was 5.75 ± 0.47 10^6 cells/μL and the “Red Cell Distribution Width” value (High Dose (50 mg)) was 15.55 ± 0.61%. For the same compound, the Sodium (High Dose (50 mg)) was 145.50 ± 4.51 mmol/L, the “Total Protein” value (High Dose (50 mg)) was 4.38 ± 0.78 g/dL and the White Blood Cells (High Dose (50 mg)) was 17.5 ± 4.92 10³ cells/µL. It also gave a Creatinine (High Dose (50 mg), adjusted p=0.04 versus low dose) of 1.53 ± 0.28 mg/dL, a BE (Low Dose (15 mg)) of -3.00 ± 5.48 mmol/L and an HCO3 (Low Dose (15 mg)) of 22.30 ± 4.08 mmol/L. For the same compound, the Lactate (Low Dose (15 mg)) was 11.84 ± 4.55 mmol/L, the TCO2 (Low Dose (15 mg)) was 23.75 ± 4.11 mmol/L and the “arterial blood gas pH” value (Low Dose (15 mg)) was 7.35 ± 0.10. The pCO2 (Low Dose (15 mg)) was 38.40 ± 5.69 mmHg, the sO2 (Low Dose (15 mg)) was 100 ± 0% and the pO2 (Low Dose (15 mg), adjusted p=0.007 versus control) was 191.75 ± 14.73 mmHg. The “Alanine Aminotransferase” value (Low Dose (15 mg)) was 31.00 ± 36.77 U/L, the Albumin (Low Dose (15 mg)) was 0.50 ± 0.00 g/dL and the “Alkaline Phosphatase” value (Low Dose (15 mg)) was 201.50 ± 10.61 U/L. For the same compound, the Amylase (Low Dose (15 mg)) was 234170 ± 286731 U/L, the “Aspartate Aminotransferase” value (Low Dose (15 mg)) was 119.00 ± 80.61 U/L and the Basophils (Low Dose (15 mg)) was 0.20 ± 0.00%. For the same compound, the Bicarbonate (Low Dose (15 mg)) was 24.95 ± 2.62 mmol/L, the “Calculated Osmolality” value (Low Dose (15 mg)) was 291.50 ± 10.61 and the Cellular Hemoglobin (Optical) (Low Dose (15 mg)) was 15.8 ± 0.42 pg. For the same compound, the “Cellular Hemoglobin Concentration Mean (Optical)” value (Low Dose (15 mg)) was 30.45 ± 0.49 g/dL, the Chloride (Low Dose (15 mg)) was 108.50 ± 3.54 mmol/L and the Creatinine (Low Dose (15 mg)) was 2.01 ± 0.16 mg/dL. The Eosinophils (Low Dose (15 mg)) was 0.40 ± 0.00%, the Glucose (Low Dose (15 mg)) was 46.00 ± 26.87 mg/dL and the Hematocrit (Low Dose (15 mg)) was 29.35 ± 0.64%. The Hemoglobin (Low Dose (15 mg)) was 9.55 ± 0.35 g/dL, the “Hemoglobin Distribution Width” value (Low Dose (15 mg)) was 1.74 ± 0.17 g/dL and the “Large Unstained Cells” value (Low Dose (15 mg)) was 0.80 ± 0.00%. For the same compound, the Lipase (Low Dose (15 mg)) was 19059.00 ± 26899.76 U/L, the Lymphocytes (Low Dose (15 mg)) was 37.55 ± 18.46% and the “Mean Corpuscular Hemoglobin” value (Low Dose (15 mg)) was 16.85 ± 0.49 pg. The “Mean Corpuscular Hemoglobin Concentration” value (Low Dose (15 mg)) was 32.45 ± 0.49 g/dL, the “Mean Corpuscular Volume” value (Low Dose (15 mg)) was 52.05 ± 0.78 fL and the “Mean Platelet Volume” value (Low Dose (15 mg)) was 14.90 ± 2.69 fL. The Monocytes (Low Dose (15 mg)) was 1.05 ± 0.78%, the Myoglobin (Low Dose (15 mg)) was 425.50 ± 318.91 ng/mL and the Neutrophils (Low Dose (15 mg)) was 60.05 ± 17.61%. The Platelets (Low Dose (15 mg)) was 329 ± 228 10³ cells/µL, the Potassium (Low Dose (15 mg)) was 4.75 ± 0.78 mmol/L and the “Red Blood Cells” value (Low Dose (15 mg)) was 5.64 ± 0.05 10^6 cells/μL. The “Red Cell Distribution Width” value (Low Dose (15 mg)) was 15.25 ± 0.78%, the Sodium (Low Dose (15 mg)) was 145.00 ± 5.66 mmol/L and the “Total Protein” value (Low Dose (15 mg)) was 4.05 ± 0.07 g/dL. The White Blood Cells (Low Dose (15 mg)) was 24 ± 18.9 10³ cells/µL, the BUN (Low Dose (15 mg), adjusted p=0.03 versus control) was 29.00 ± 2.83 mg/dL and the mortalities (high dose 50 mg) was “no mortalities”. For the same compound, the “metabolic / lactic acidosis after burn” value (high dose 50 mg, not statistically significant) was “may ameliorate metabolic acidosis; also recorded: may improve lactic acidosis”, the “effect on mortality, high dose versus low dose” value (high dose 50 mg, not versus control) was “significantly out-performing the low dose group” and the resuscitation fluid required [1] was “no statistically significant differences; also recorded: did not appear to reduce resuscitation volumes”. For the same compound, the urine output generated [1] was “no statistically significant differences; also recorded: did not appear to reduce resuscitation volumes or improve urine output”, the mortalities (low dose 15 mg) was “three” and the “time to mortality, low dose versus high dose” value (low dose 15 mg, p=0.044) was “significantly worse time to mortality”.
